Reference: patent EP2601963B1, “N-ISOVALEROYL-L-GLUTAMYL-L-TRYPTOPHAN AS AN AGENT INHIBITING THE FORMATION OF ULCERS IN THE STOMACH AND THE DUODENUM” (Obshestvo S Ogranichennoj Otvetstvennostju "CytoNIR", priority 2010, dated 2015)

How the values were obtained:
Format in all cases: in vivo, male Wistar rats
[1] = system: indomethacin-induced ulcers; test: Indomethacin-induced ulcer model, therapeutic treatment: healing of gastric lesions; design: key to GA1 (gastroprotective activity calculated for number of lesions): GA1 = PI of control group / PI of experimental group; key to GA2 (gastroprotective activity calculated for lesion size): GA2 = UI of control group / UI of experimental group; key to Ulcer Index: UI = average lesion area in group × % animals with lesions / 100; Lesion Size: unit not given here
[2] = system: indomethacin-induced gastric ulcers; test: Indomethacin-induced ulcer model, preventive treatment: gastric lesions; design: key to GA1 (gastroprotective activity calculated for number of lesions): GA1 = PI of control group / PI of experimental group; key to GA2 (gastroprotective activity calculated for lesion size): GA2 = UI of control group / UI of experimental group; key to Ulcer Index: UI = average lesion area size x % of animals with lesions/100; Small round Size / Total Size / Large round Size / Linear Size / Lesion Size: unit not given here
Description: (§1) All studies were conducted on male Wistar rats weighing 220 ± 20 g, obtained from Rappolovo nursery (Leningrad oblast). For 14 days prior to the experiment, the animals were held in isolation. The animals were handled in accordance with the European Convention for the Protection of Vertebrate Animals used for Experimental and Other Scientific Purposes (Strasburg, 1986). The animals were held in standard plastic cages and fed a standard diet of PK120-3 (granulated feed in accordance with order # 1179 M3 USSR 10/10/1983) with a free access to water.
(§2) Animals' body weight changes were monitored throughout the experiment. The experimental animals were then sacrificed by decapitation, and their blood was collected in test tubes. The stomachs were extracted, dissected along the major curve, rinsed with cold saline solution, and the mucosa was carefully examined through a magnifying glass under bright lights. The mucosa was inspected for color, the presence of hyperemia and its intensity. The number of lesions, which were differentiated into small round (less than 1 mm), linear, and large lesions (more than 1mm) and the size of the area they covered were calculated. The average number of lesions per one animal in a group and the percentage of animals with ulcers were also calculated. Pauls Index (PI) was used as an integral indicator of the number of lesions and was calculated as follows: • PI = average number of lesions in a group x % of animals with lesions/100 [Pauls F., Wick A.M.,Mac. Key E.M. et al. An assau method for anti ulcer substances // Gastroenterology.- 1947. #8.- p.p.774 - 782]. Ulcer index UI was calculated as: UI = average lesion area size in the group x % of animals with lesions/100; gastroprotective activity GA1 was calculated as: GA1 = PI of the control group/PI of the experimental group, GA2 = UI of the control group/UI of the experimental group. The proposed drug was considered active when GA ≥ 2.
(§3) Five groups of 10 animals per group were prepared for the experiment as described in Example 1.
In each series of experiments, the animals were divided into experimental and control groups at 10 animals per group. The animals in the experimental group were orally administered the proposed medication or a comparator drug, and the control animals were given distilled water in the same amount. • control group received distilled water per os; • experimental group 1 received 0.1 mkg/kg N-isovaleroyl-L-glutamyl-L-tryptophan; • experimental group 2 received 10 mkg/kg N-isovaleroyl-L-glutamyl-L-tryptophan; • experimental group 3 received 200 mkg/kg of the comparator drug Sucralfate.
The efficacy of the course of preventive treatment with the claimed composition was evaluated 24 hrs. post indomethacin administration. The study was conducted as in Example 1.

[3] = system: indomethacin-induced ulcers; test: Indomethacin-induced ulcer model, therapeutic treatment: healing of gastric lesions
Description: as §1, §2, §3
In each series of the experiments, the animals were divided into experimental and control groups at 10 animals per group. The proposed medication or a comparator drug were orally administered to the animals in the experimental group, and the control animals were given distilled water in the same amount. • control group received distilled water per os; • experimental group 1 received 0.1 mkg/kg isovaleroyl glutamyl tryptophan; • experimental group 2 received 10 mkg/kg isovaleroyl glutamyl tryptophan; • experimental group 3 received 200 mkg/kg of the comparator drug Sucralfate.
2 ml/kg of the ulcerogenic dose of indomethacin equal to 30 mg/kg was administered intraperitoneally. The treatment started 24 hrs. post indomethacin administration and continued for 5 days. The animals in the experimental groups received N-isovaleroyl-L-glutamyl-L-tryptophan or the comparator drug Sucralfate, and the control group received distilled water.

[4] = Indomethacin 30 mg/kg + 1 mkg/kg, treatment 5 days
[5] = 200 mg/kg + stress (so in the source)
[6] = 200 mg/kg, indomethacin-induced ulcers
[7] = Indomethacin 30 mg/kg + 200 mg/kg, treatment 5 days

Substance: N-isovaleroyl-L-glutamyl-L-tryptophan [VGT preparation]
- Pauls index lower than that of the control animals ([1]; 0.1 mkg/kg, treatment after Indomethacin): 2 times
- # Lesions [1, 4]: 4.1 ± 0.8
- % Animals with Ulcers [1, 4]: 100%
- GA1 (gastroprotective activity calculated for number of lesions) [1, 4]: 2.0
- GA2 (gastroprotective activity calculated for lesion size) [1, 4]: 2.6
- Lesion Size [1, 4]: 12.3 ± 3.5
- PI [1, 4]: 4.1
- Ulcer Index [1, 4]: 12.3
- GA2 (gastroprotective activity calculated for lesion size) ([1]; Indomethacin 30 mg/kg + 10 mkg/kg, treatment 5 days): 1.4

Substance: aluminum complex of beta-D-fructofuranosyl-alpha-D-glucopyranoside octakis (hydrosulfate) [Sucralfate]
- # Lesions [2, 5]: 5.4 ± 1.4
- % Animals with Ulcers [2, 5]: 80%
- GA1 (gastroprotective activity calculated for number of lesions) [2, 5]: 4.93
- GA2 (gastroprotective activity calculated for lesion size) [2, 5]: 8.56
- Lesion Size [2, 5]: 3.3 ± 1.2
- PI [2, 5]: 4.32
- Ulcer Index [2, 5]: 2.64
- Large round Amount [2, 6]: 2.4 ± 0.8
- Large round Size [2, 6]: 1.0 ± 0.4
- Linear Amount [2, 6]: 1.2 ± 0.4
- Linear Size [2, 6]: 1.8 ± 0.9
- Small round Amount [2, 6]: 1.8 ± 0.6
- Small round Size [2, 6]: 0.5 ± 0.2
- Total Amount [2, 6]: 5.4 ± 1.4
- Total Size [2, 6]: 3.3 ± 1.2
- # Lesions [3, 7]: 3.3 ± 1.0
- % Animals with Ulcers [3, 7]: 85.7%
- GA1 (gastroprotective activity calculated for number of lesions) [3, 7]: 3.0
- GA2 (gastroprotective activity calculated for lesion size) [3, 7]: 3.3
- Lesion Size [3, 7]: 11.5 ± 4.26
- PI [3, 7]: 2.8
- Ulcer Index [3, 7]: 9.86
- animals found to have lesions ([3]; treatment after Indomethacin): 85.7%
